What was measured:
PRMT5 [1] = biological target: T1, PRMT5 (Homo sapiens, UniProt O14744); assay: PRMT5 IC50 assay in the presence of SAM as cofactor; format: biochemical
T1 construct: purchased Viva (custom protein)
Summary of the method: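 MTA-dependent versus SAM-dependent inhibition of human PRMT5 was assessed by IC50; conversion factors of 13.5 and 1.5 gave the corresponding Ki.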

PRMT5 [2] = biological target: T1, PRMT5; assay: PRMT5 IC50 assay with no cofactor; format: biochemical
Summary of the method: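 Ki conversion: SAM arm, Ki=IC50/1.5; MTA arm, Ki=IC50/13.5. No-cofactor arm reported as IC50 only. Selectivity expressed as Ki(SAM)/Ki(MTA).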

PRMT5 [3] = biological target: T1, PRMT5; assay: PRMT5 IC50 assay in the presence of MTA as cofactor; format: biochemical; conditions: for IC50: PRMT5, MTA as cofactor
Summary of the method: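 Potency against PRMT5 is compared across cofactor states, where IC50 equals Ki×1.5 with SAM present and Ki×13.5 with MTA present.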

HAP1 MTAP-intact = assay: SDMA in-cell western assay, HAP1 MTAP-intact cell line; format: cell-based; conditions: Homo sapiens
Summary of the method: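 IC50 values come from SDMA in-cell western staining of HAP1 cells. The MTAP-intact line carries endogenous MTAP, while its MTAP-deleted counterpart lacks MTAP entirely. A selectivity ratio of at least 3 fold marks a compound as MTAP-selective.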

HAP1 MTAP-deleted = assay: SDMA in-cell western assay, HAP1 MTAP-deleted cell line; format: cell-based; conditions: for IC50: Homo sapiens, HAP1 MTAP-deleted cell line; for MTAP Intact/Deleted Ratio: IC50 ratio HAP1 MTAP-intact / HAP1 MTAP-deleted
Summary of the method: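 Readout is cellular SDMA signal by in-cell western, with IC50 values derived from it. The cells are MTAP-null HAP1, matched to an isogenic MTAP-intact HAP1 line.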

[4] = ratio between the Ki in the presence of SAM and the Ki in the presence of MTA
[5] = ratio between Ki in the presence of SAM and Ki in the presence of MTA

T1 sequence (O14744 whole entry): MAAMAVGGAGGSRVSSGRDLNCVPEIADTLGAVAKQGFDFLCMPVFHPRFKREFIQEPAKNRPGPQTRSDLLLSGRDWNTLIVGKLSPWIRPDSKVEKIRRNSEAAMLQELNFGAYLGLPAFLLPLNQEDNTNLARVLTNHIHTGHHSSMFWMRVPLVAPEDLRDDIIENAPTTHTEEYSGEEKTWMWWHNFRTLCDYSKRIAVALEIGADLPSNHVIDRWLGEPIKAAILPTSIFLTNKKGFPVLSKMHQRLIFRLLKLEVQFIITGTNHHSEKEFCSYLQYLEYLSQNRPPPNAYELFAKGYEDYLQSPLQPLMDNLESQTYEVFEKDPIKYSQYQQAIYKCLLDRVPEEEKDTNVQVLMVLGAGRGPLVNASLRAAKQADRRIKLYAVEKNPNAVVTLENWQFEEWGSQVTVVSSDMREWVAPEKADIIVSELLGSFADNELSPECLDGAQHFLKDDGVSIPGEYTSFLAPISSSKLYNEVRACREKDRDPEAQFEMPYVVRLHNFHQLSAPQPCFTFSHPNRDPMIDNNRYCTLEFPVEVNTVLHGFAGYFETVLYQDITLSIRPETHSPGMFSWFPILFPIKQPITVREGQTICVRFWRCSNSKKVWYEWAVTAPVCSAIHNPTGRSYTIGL
T1 sequence (Q9BQA1 whole entry partner): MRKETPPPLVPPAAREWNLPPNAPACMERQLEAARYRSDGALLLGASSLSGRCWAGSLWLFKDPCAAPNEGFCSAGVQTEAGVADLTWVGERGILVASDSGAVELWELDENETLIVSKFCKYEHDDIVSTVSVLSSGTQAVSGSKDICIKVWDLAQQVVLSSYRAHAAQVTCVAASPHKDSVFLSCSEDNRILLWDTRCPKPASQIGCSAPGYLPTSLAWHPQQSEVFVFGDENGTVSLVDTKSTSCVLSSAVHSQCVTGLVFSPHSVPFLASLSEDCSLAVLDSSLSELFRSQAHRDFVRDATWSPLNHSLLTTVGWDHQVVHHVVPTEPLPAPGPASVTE

| SMILES | IC50 (PRMT5 [1]) [nM] | IC50 (PRMT5 [2]) [nM] | IC50 (PRMT5 [3]) [nM] | IC50 (HAP1 MTAP-intact) [nM] | IC50 (HAP1 MTAP-deleted) [nM] | IC50 (PRMT5 [2]; read-out: No Co-factor IC50) [nM] | SAM/MTA Ratio (PRMT5 [3]; [4]) | MTAP Intact/Deleted Ratio (HAP1 MTAP-deleted) | SAM/MTA Ratio (PRMT5 [3]; [5]) |
| --- | --- | --- | --- | --- | --- | --- | --- | --- | --- |
| CCC(=O)N1CCC(Nc2cc(C(=O)NC[C@H](O)CN3CCc4c(ccc(OCc5cnco5)c4C)C3)ccn2)CC1 [Compound 496, (S)—N-(2-hydroxy-3-(5-methyl-6-(oxazol-5-ylmethoxy)-3N-dihydroisoquinolin-2(1H)-yl)propyl)-2-((1-propionylpiperidin-4-yl)amino)isonicotinamide] | 50 to 500 | 500 to 5000 | 50 to 500 | ≥ 10000 | 1000 to 10000 | – | A (a Ki ratio greater than or equal to 10 fold between the Ki in the presence of SAM and the Ki in the presence of MTA) | B* (an IC50 ratio greater than or equal to 3 fold but lower than 10 fold between the IC50 in the HAP1 MTAP-intact cell line and the HAP1 MTAP-deleted cell line) | – |
| CC(C)(C)N1CCN(c2nc(NC3COC3)cc(C(=O)NC[C@H](O)CN3CCc4c(ccc(OCc5cnco5)c4Cl)C3)n2)CC1 [Compound 370, (S)-2-(4-(tert-butyl)piperazin-1-yl)-N-(3-(5-chloro-6-(oxazol-5-ylmethoxy)-3N-dihydroisoquinolin-2(1H)-yl)-2-hydroxypropyl)-6-(oxetan-3-ylamino)pyrimidine-4-carboxamide] | 50 to 500 | – | 50 to 500 | ≥ 10000 | 1000 to 10000 | ≥ 5000 | – | C* (an IC50 ratio of less than 3 fold between the IC50 in the HAP1 MTAP-intact cell line and the HAP1 MTAP-deleted cell line) | A (a Ki ratio greater than or equal to 10 fold between the Ki in the presence of SAM and the Ki in the presence of MTA) |
| Cc1c(OCc2cnco2)ccc2c1CCN(C[C@@H](O)CNC(=O)c1ccnc(NC3CCN(S(C)(=O)=O)CC3)c1)C2 [Compound 386, (S)—N-(2-hydroxy-3-(5-methyl-6-(oxazol-5-ylmethoxy)-3N-dihydroisoquinolin-2(1H)-yl)propyl)-2-((1-(methylsulfonyl)piperidin-4-yl)amino)isonicotinamide] | 50 to 500 | – | 50 to 500 | ≥ 10000 | 1000 to 10000 | 500 to 5000 | – | C* (an IC50 ratio of less than 3 fold between the IC50 in the HAP1 MTAP-intact cell line and the HAP1 MTAP-deleted cell line) | A (a Ki ratio greater than or equal to 10 fold between the Ki in the presence of SAM and the Ki in the presence of MTA) |
| CC(=O)N1CCC(Nc2cc(C(=O)NC[C@H](O)CN3CCc4c(ccc(OCc5ocnc5C)c4C)C3)ncn2)CC1 [Compound 274, (S)-6-((1-acetylpiperidin-4-yl)amino)-N-(2-hydroxy-3-(5-methyl-6-((4-methyloxazol-5-yl)methoxy)-3,4-dihydroisoquinolin-2(1H)-yl)propyl)pyrimidine-4-carboxamide] | 50 to 500 | – | 50 to 500 | ≥ 10000 | 1000 to 10000 | ≥ 5000 | – | C* (an IC50 ratio of less than 3 fold between the IC50 in the HAP1 MTAP-intact cell line and the HAP1 MTAP-deleted cell line) | A (a Ki ratio greater than or equal to 10 fold between the Ki in the presence of SAM and the Ki in the presence of MTA) |
| O=C(NC[C@H](O)CN1CCc2c(ccc(OCc3cnco3)c2Cl)C1)c1cc(NC2COC2)nc(N2CCN(C(=O)C3CC3)CC2)n1 [Compound 297, (S)—N-(3-(5-chloro-6-(oxazol-5-ylmethoxy)-3N-dihydroisoquinolin-2(1H)-yl)-2-hydroxypropyl)-2-(4-(cyclopropanecarbonyl)piperazin-1-yl)-6-(oxetan-3-ylamino)pyrimidine-4-carboxamide] | 50 to 500 | – | 50 to 500 | ≥ 10000 | 1000 to 10000 | 500 to 5000 | – | C* (an IC50 ratio of less than 3 fold between the IC50 in the HAP1 MTAP-intact cell line and the HAP1 MTAP-deleted cell line) | A (a Ki ratio greater than or equal to 10 fold between the Ki in the presence of SAM and the Ki in the presence of MTA) |
| Cc1ncoc1COc1ccc2c(c1)CCN(C[C@@H](O)CNC(=O)c1cc(NC3CCN(C(=O)C(C)(C)C)CC3)ncn1)C2 [Compound 616, 6-{[1-(2,2-dimethylpropanoyl)piperidin-4-yl]amino}-N-[(2S)-2-hydroxy-3-{6-[(4-methyl-1,3-oxazol-5-yl)methoxy]-1,2,3,4-tetrahydroisoquinolin-2-yl}propyl]pyrimidine-4-carboxamide] | 50 to 500 | 500 to 5000 | < 50 | 1000 to 10000 | < 1000 | – | A (a Ki ratio greater than or equal to 10 fold between the Ki in the presence of SAM and the Ki in the presence of MTA) | C* (an IC50 ratio of less than 3 fold between the IC50 in the HAP1 MTAP-intact cell line and the HAP1 MTAP-deleted cell line) | – |
| Cc1ncoc1COc1ccc2c(c1)CCN(C[C@@H](O)CNC(=O)c1ccnc(Nc3cccnc3)c1)C2 [Compound 581, (S)—N-(2-hydroxy-3-(6-((4-methyloxazol-5-yl)methoxy)-3,4-dihydroisoquinolin-2(1H)-yl)propyl)-2-(pyridin-3-ylamino)isonicotinamide] | 50 to 500 | ≥ 5000 | 50 to 500 | 1000 to 10000 | 1000 to 10000 | – | A (a Ki ratio greater than or equal to 10 fold between the Ki in the presence of SAM and the Ki in the presence of MTA) | B* (an IC50 ratio greater than or equal to 3 fold but lower than 10 fold between the IC50 in the HAP1 MTAP-intact cell line and the HAP1 MTAP-deleted cell line) | – |
| CC(=O)N1CC[C@H](Nc2cc(C(=O)NC[C@H](O)CN3CCc4cc(OCc5ocnc5C)ccc4C3)ccn2)C[C@H]1C [Compound 644, 2-(((2R,4S)-1-acetyl-2-methylpiperidin-4-yl)amino)-N—((S)-2-hydroxy-3-(6-((4-methyloxazol-5-yl)methoxy)-3,4-dihydroisoquinolin-2(1H)-yl)propyl)isonicotinamide] | 50 to 500 | – | < 50 | 1000 to 10000 | < 1000 | 500 to 5000 | – | A* (an IC50 ratio greater than or equal to 10 fold between the IC50 in the HAP1 MTAP-intact cell line and the HAP1 MTAP-deleted cell line) | A (a Ki ratio greater than or equal to 10 fold between the Ki in the presence of SAM and the Ki in the presence of MTA) |

The next lines start with results.

| IC50 (PRMT5 [1]) [nM] | IC50 (PRMT5 [2]) [nM] | IC50 (PRMT5 [3]) [nM] | IC50 (HAP1 MTAP-intact) [nM] | IC50 (HAP1 MTAP-deleted) [nM] | IC50 (PRMT5 [2]; read-out: No Co-factor IC50) [nM] | SMILES | SAM/MTA Ratio (PRMT5 [3]; [4]) | MTAP Intact/Deleted Ratio (HAP1 MTAP-deleted) | SAM/MTA Ratio (PRMT5 [3]; [5]) |
| --- | --- | --- | --- | --- | --- | --- | --- | --- | --- |
| 50 to 500 | ≥ 5000 | 50 to 500 | ≥ 10000 | 1000 to 10000 | – | Cc1c(OCc2cnco2)ccc2c1CCN(C[C@@H](O)CNC(=O)c1cc(NC3CCN(C(=O)C(C)C)CC3)ncn1)C2 [Compound 520, N-[(2S)-2-hydroxy-3-{5-methyl-6-[(1,3-oxazol-5-yl)methoxy]-1,2,3,4-tetrahydroisoquinolin-2-yl}propyl]-6-{[1-(2-methylpropanoyl)piperidin-4-yl]amino}pyrimidine-4-carboxamide] | A (a Ki ratio greater than or equal to 10 fold between the Ki in the presence of SAM and the Ki in the presence of MTA) | B* (an IC50 ratio greater than or equal to 3 fold but lower than 10 fold between the IC50 in the HAP1 MTAP-intact cell line and the HAP1 MTAP-deleted cell line) | – |
| 50 to 500 | 500 to 5000 | 50 to 500 | ≥ 10000 | ≥ 10000 | – | CC(=O)N1CC(Nc2cc(C(=O)NC[C@H](O)CN3CCc4cc(OCc5cnco5)ccc4C3)ccn2)C1 [Compound 451] | A (a Ki ratio greater than or equal to 10 fold between the Ki in the presence of SAM and the Ki in the presence of MTA) | C* (an IC50 ratio of less than 3 fold between the IC50 in the HAP1 MTAP-intact cell line and the HAP1 MTAP-deleted cell line) | – |
| 50 to 500 | 500 to 5000 | 50 to 500 | ≥ 10000 | < 1000 | – | CC(=O)N1CC(Nc2cc(C(=O)NC[C@H](O)CN3CCc4c(ccc(OCc5cnco5)c4Cl)C3)nc(N3CCCCC3)n2)C1 [Compound 532] | A (a Ki ratio greater than or equal to 10 fold between the Ki in the presence of SAM and the Ki in the presence of MTA) | A* (an IC50 ratio greater than or equal to 10 fold between the IC50 in the HAP1 MTAP-intact cell line and the HAP1 MTAP-deleted cell line) | – |
| 50 to 500 | – | 50 to 500 | 1000 to 10000 | < 1000 | 500 to 5000 | Cc1ncoc1COc1ccc2c(c1)CCN(C[C@@H](O)CNC(=O)c1cc(NC3CCC3)nc(NC3CCC3)c1)C2 [Compound 636, (S)-2,6-bis(cyclobutylamino)-N-(2-hydroxy-3-(6-((4-methyloxazol-5-yl)methoxy)-3N-dihydroisoquinolin-2(1H)-yl)propyl)isonicotinamide] | – | B* (an IC50 ratio greater than or equal to 3 fold but lower than 10 fold between the IC50 in the HAP1 MTAP-intact cell line and the HAP1 MTAP-deleted cell line) | A (a Ki ratio greater than or equal to 10 fold between the Ki in the presence of SAM and the Ki in the presence of MTA) |
